Earlier results as cited in US20200319191A1, “MOLECULAR PROFILING FOR CANCER” (Caris MPI, Inc., priority 2015, published 2020).
Like-named read-outs stand apart in the source and are kept apart here. One block for each compound: values may come before it.

Conditions: for Evid. Level, ER Positive (IHC) / Bene. Level, ER Positive (IHC): Hormonal Agents; for sensitivity by EGFRvIII expression: preliminary studies; for response by TOPOI expression: expression of TOPOI

- Evid. Level, ER Positive (IHC) (ER Positive (IHC)=F): 1
- Bene. Level, ER Positive (IHC) (ER Positive (IHC)=T): 1
- Evid. Level, ER Positive (IHC) (ER Positive (IHC)=T): 1
SMILES: C[C@]12CC[C@@H]3c4ccc(O)cc4C[C@@H](CCCCCCCCC[S+]([O-])CCCC(F)(F)C(F)(F)F)[C@H]3[C@@H]1CC[C@@H]2O (stereo partly shown) [fulvestrant]

SMILES: COc1cc2ncnc(Nc3ccc(F)c(Cl)c3)c2cc1OCCCN1CCOCC1 [gefitinib]
- sensitivity by EGFRvIII expression: higher sensitivity to erlotinib and gefitinib, as well as to pan-Her inhibitors including

SMILES: Nc1ccn([C@@H]2O[C@H](CO)[C@@H](O)C2(F)F)c(=O)n1 [gemcitabine]
- resistance by RRM1 level (high RRM1 level): activity. High RRM1 level is associated with resistance to gemcitabine.

SMILES: CCc1c2c(nc3ccc(OC(=O)N4CCC(N5CCCCC5)CC4)cc13)-c1cc3c(c(=O)n1C2)COC(=O)[C@]3(O)CC [irinotecan]
- response by TOPOI expression: DNA molecule. Expression of TOPOI has been associated with response to TOPOI

- Evid. Level, ER Positive (IHC) (ER Positive (IHC)=F): 1
- Bene. Level, ER Positive (IHC) (ER Positive (IHC)=T): 1
- Evid. Level, ER Positive (IHC) (ER Positive (IHC)=T): 1
SMILES: N#Cc1ccc(C(c2ccc(C#N)cc2)n2cncn2)cc1 [letrozole]

- Evid. Level, ER Positive (IHC) (ER Positive (IHC)=F): 1
- Bene. Level, ER Positive (IHC) (ER Positive (IHC)=T): 1
- Evid. Level, ER Positive (IHC) (ER Positive (IHC)=T): 1
SMILES: CC(=O)O[C@]1(C(C)=O)CC[C@H]2[C@@H]3C=C(C)C4=CC(=O)CC[C@]4(C)[C@H]3CC[C@@]21C [megestrol acetate]

SMILES: CCOc1cc2ncc(C#N)c(Nc3ccc(OCc4ccccn4)c(Cl)c3)c2cc1NC(=O)/C=C/CN(C)C [neratinib]
- sensitivity by EGFRvIII expression: higher sensitivity to erlotinib and gefitinib, as well as to pan-Her inhibitors including

SMILES: O=C(O)C(=O)O.[NH-][C@@H]1CCCC[C@H]1[NH-].[Pt+2] [oxaliplatin]
- disease control rate by APC status (APC wild type patients, metastatic setting, colorectal): event in colorectal tumorigenesis. APC wild type patients have shown better disease

- PGP Positive (IHC) Bene. Level (IHC positive: TLE3 F, TUBB3 F, PGP F): 1
- PGP Positive (IHC) Bene. Level (IHC positive: TLE3 F, TUBB3 F, PGP T): 2
- PGP Positive (IHC) Bene. Level (IHC positive: TLE3 F, TUBB3 No Data, PGP F): 1
- PGP Positive (IHC) Bene. Level (IHC positive: TLE3 F, TUBB3 No Data, PGP T): 3
- PGP Positive (IHC) Bene. Level (IHC positive: TLE3 F, TUBB3 T, PGP F): 1
- PGP Positive (IHC) Bene. Level (IHC positive: TLE3 F, TUBB3 T, PGP T): 3
- PGP Positive (IHC) Bene. Level (IHC positive: TLE3 No Data, TUBB3 F, PGP F): 1
- PGP Positive (IHC) Bene. Level (IHC positive: TLE3 No Data, TUBB3 F, PGP T): 2
- PGP Positive (IHC) Bene. Level (IHC positive: TLE3 No Data, TUBB3 No Data, PGP F): 1
- PGP Positive (IHC) Bene. Level (IHC positive: TLE3 No Data, TUBB3 No Data, PGP T): 3
- PGP Positive (IHC) Bene. Level (IHC positive: TLE3 No Data, TUBB3 T, PGP F): 1
- PGP Positive (IHC) Bene. Level (IHC positive: TLE3 No Data, TUBB3 T, PGP T): 3
- PGP Positive (IHC) Bene. Level (IHC positive: TLE3 T, TUBB3 F, PGP F): 1
- PGP Positive (IHC) Bene. Level (IHC positive: TLE3 T, TUBB3 F, PGP T): 2
- PGP Positive (IHC) Bene. Level (IHC positive: TLE3 T, TUBB3 No Data, PGP F): 1
- PGP Positive (IHC) Bene. Level (IHC positive: TLE3 T, TUBB3 No Data, PGP T): 2
- PGP Positive (IHC) Bene. Level (IHC positive: TLE3 T, TUBB3 T, PGP F): 1
- PGP Positive (IHC) Bene. Level (IHC positive: TLE3 T, TUBB3 T, PGP T): 2
- PGP Positive (IHC) Evid. Level (taxanes rule, Ref. No. 28): 3
SMILES: CC(=O)O[C@H]1C(=O)[C@@]2(C)[C@H]([C@H](OC(=O)c3ccccc3)[C@]3(O)C[C@H](OC(=O)[C@H](O)[C@@H](NC(=O)c4ccccc4)c4ccccc4)C(C)=C1C3(C)C)[C@]1(OC(C)=O)CO[C@@H]1C[C@@H]2O [paclitaxel]

- Evid. Level, ER Positive (IHC) (ER Positive (IHC)=F): 1
- Bene. Level, ER Positive (IHC) (ER Positive (IHC)=T): 1
- Evid. Level, ER Positive (IHC) (ER Positive (IHC)=T): 1
SMILES: CC/C(=C(\c1ccccc1)c1ccc(OCCN(C)C)cc1)c1ccccc1 [tamoxifen]

SMILES: CO[C@H]1C[C@@H]2CC[C@@H](C)[C@@](O)(O2)C(=O)C(=O)N2CCCC[C@H]2C(=O)O[C@H]([C@H](C)C[C@@H]2CC[C@@H](OC(=O)C(C)(CO)CO)[C@H](OC)C2)CC(=O)[C@H](C)/C=C(\C)[C@@H](O)[C@@H](OC)C(=O)[C@H](C)C[C@H](C)/C=C/C=C/C=C/1C [temsirolimus]
- benefit by PIK3CA status (PIK3CA exon 20 mutations): associated with benefit from mTOR inhibitors (everolimus, temsirolimus). Evidence

SMILES: CC[C@@]1(O)C(=O)OCc2c1cc1n(c2=O)Cc2cc3c(CN(C)C)c(O)ccc3nc2-1 [topotecan]
- response by TOPOI expression: DNA molecule. Expression of TOPOI has been associated with response to TOPOI

- Evid. Level, ER Positive (IHC) (ER Positive (IHC)=F): 1
- Bene. Level, ER Positive (IHC) (ER Positive (IHC)=T): 1
- Evid. Level, ER Positive (IHC) (ER Positive (IHC)=T): 1
SMILES: CN(C)CCOc1ccc(/C(=C(/CCCl)c2ccccc2)c2ccccc2)cc1 [toremifene]

SMILES: CCCS(=O)(=O)Nc1ccc(F)c(C(=O)c2c[nH]c3ncc(-c4ccc(Cl)cc4)cc23)c1F [vemurafenib]
- tumors that develop in treated patients (patients treated with BRAF inhibitor, likely paradoxical activation of the MAPK pathway): cutaneous squamous cell carcinomas and keratoacanthomas that develop in patients treated

SMILES: CCC1=C[C@@H]2CN(C1)Cc1c([nH]c3ccccc13)[C@@](C(=O)OC)(c1cc3c(cc1OC)N(C)[C@H]1[C@@](O)(C(=O)OC)[C@H](OC(C)=O)[C@]4(CC)C=CCN5CC[C@]31[C@@H]54)C2 [vinorelbine]
- resistance by loss of FBXW7 (loss of FBXW7, tubulin-targeting agents): loss of FBXW7 confers resistance to tubulin-targeting agents like paclitaxel or vinorelbine,
